Here are results for 15 compounds from PubChem BioAssay (NCI).

Molecules are shown by their SMILES.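 The compound was tested at five concentrations on cells cultured in 96-well plates, with a 48-hour exposure period. TGI: concentration producing complete growth inhibition.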

Some test systems named below: A549 NSCLC; IGROV1 ovarian; NCI-H522 lung; OVCAR-5 ovarian; OVCAR-8 ovarian; SK-OV-3 ovarian; SNB-75 CNS; U251 CNS; SNB-19 CNS.
Holding throughout (experiment): DTP human tumour cell line panel, 48 h

In general, TGI refers to the concentration giving total growth inhibition. Take `BrC(Br)([P+](c1ccccc1)(c1ccccc1)c1ccccc1)[P+](c1ccccc1)(c1ccccc1)c1ccccc1`: the TGI in the assay on A549 NSCLC was greater than 100 µM; in the assay on IGROV1 ovarian it was 43.2 µM; with NCI-H522 lung, 28.7 µM; in the assay on OVCAR-5 ovarian, 81.3 µM; in the assay on OVCAR-8 ovarian it was 26.4 µM; in the assay with SK-OV-3 ovarian, greater than 100 µM. For the same compound, the TGI in the assay on SNB-75 CNS came out at 53.3 µM; in the assay on U251 CNS it was 47.3 µM.
`CCOC(=O)c1cc(C(=O)O)c(=O)n2c1[nH]c1ccccc12`: the TGI with A549 NSCLC, with IGROV1 ovarian, in the assay with NCI-H522 lung, in the assay with OVCAR-8 ovarian, in the assay with SK-OV-3 ovarian and with SNB-19 CNS was greater than 100 µM in each case. Further, the total growth inhibition concentration (TGI) in the assay with SNB-75 CNS and in the assay with U251 CNS was greater than 100 µM in each case.
In the case of `O=c1/c(=C/c2ccc3c(c2)OCO3)sc2nnc(Cc3ccccc3)n12`, the concentration for total growth inhibition (TGI) in the assay on A549 NSCLC, with IGROV1 ovarian, with NCI-H522 lung, in the assay with OVCAR-5 ovarian, with OVCAR-8 ovarian and in the assay with SK-OV-3 ovarian was greater than 100 µM throughout. The TGI in the assay on SNB-19 CNS, with SNB-75 CNS and in the assay on U251 CNS was greater than 100 µM each time.
Turning to `c1cc2ccc1C1NCCCN1CCN1CCCNC1c1ccc(cc1)C1NCCCN1CCN1CCCNC21` (stereo not drawn), the TGI with A549 NSCLC is greater than 100 µM; in the assay on IGROV1 ovarian, greater than 100 µM; in the assay on NCI-H522 lung, 97.9 µM; with OVCAR-5 ovarian it was greater than 100 µM; in the assay with OVCAR-8 ovarian it was greater than 100 µM; with SK-OV-3 ovarian it was greater than 100 µM. Besides, the TGI in the assay with SNB-19 CNS, with SNB-75 CNS and with U251 CNS was greater than 100 µM each time.
With `CC12O[Te]34OC1(C)C(C)(O3)C2(C)O4`, the TGI with A549 NSCLC worked out at 25.1 µM; in the assay on IGROV1 ovarian, 24.9 µM; in the assay with NCI-H522 lung, 23.6 µM; with OVCAR-5 ovarian, 23.7 µM; with OVCAR-8 ovarian it was 24.4 µM; with SK-OV-3 ovarian it was 36.3 µM. Moreover, the TGI with SNB-19 CNS was 37.5 µM; with SNB-75 CNS, greater than 8.75 µM; in the assay with U251 CNS it was 15.2 µM.
Regarding `C1=CC=C2NCCSCCNC3=CC=CC=CC3=NCCSCCN=C2C=C1`, the TGI in the assay on A549 NSCLC, in the assay on IGROV1 ovarian, with NCI-H522 lung, in the assay with OVCAR-5 ovarian, in the assay on OVCAR-8 ovarian and in the assay with SK-OV-3 ovarian was greater than 100 µM throughout. The concentration for total growth inhibition (TGI) in the assay on SNB-19 CNS, in the assay with SNB-75 CNS and with U251 CNS was greater than 100 µM throughout.
Take `COC(=O)Cc1cc(=O)oc2c1C(=O)CCC2`: the TGI with A549 NSCLC, in the assay on IGROV1 ovarian, with NCI-H522 lung, in the assay with OVCAR-5 ovarian, with OVCAR-8 ovarian and with SK-OV-3 ovarian was greater than 100 µM each time. For the same compound, the TGI in the assay on SNB-19 CNS, in the assay with SNB-75 CNS and in the assay with U251 CNS was greater than 100 µM each time.
On to `O=C1OC(c2ccc(Cl)c3ccccc23)c2ccccc21` (stereo not drawn), for which the concentration for total growth inhibition (TGI) in the assay with A549 NSCLC, in the assay with IGROV1 ovarian, in the assay with NCI-H522 lung, in the assay on OVCAR-5 ovarian, with OVCAR-8 ovarian and in the assay on SK-OV-3 ovarian was greater than 100 µM each time. The results for the concentration for total growth inhibition (TGI) in the assay with SNB-19 CNS, with SNB-75 CNS and with U251 CNS were greater than 100 µM, 51.1 µM and greater than 100 µM, respectively.
As to `COc1cc2c3c(c1OC)/C(=N/OS(=O)(=O)c1ccc(C)cc1)CC3N(S(=O)(=O)c1ccc(C)cc1)CC2` (stereo not drawn), the TGI in the assay on A549 NSCLC, in the assay with IGROV1 ovarian, with NCI-H522 lung, with OVCAR-5 ovarian, with OVCAR-8 ovarian and in the assay with SK-OV-3 ovarian was greater than 100 µM each time. The TGI in the assay with SNB-19 CNS, in the assay with SNB-75 CNS and in the assay on U251 CNS was greater than 100 µM in each case.
Consider `C/C(N=NC(=S)N1CCCCCC1)=C1\C=CC=CN1O`, for which the TGI in the assay on A549 NSCLC was greater than 92.3 µM; with IGROV1 ovarian, greater than 53.8 µM; in the assay on NCI-H522 lung, 7.1 µM; in the assay with OVCAR-5 ovarian, greater than 100 µM; with OVCAR-8 ovarian it was greater than 49.4 µM; in the assay with SK-OV-3 ovarian, 98.2 µM. Moreover, the concentration for total growth inhibition (TGI) was greater than 100 µM with SNB-19 CNS, 72.7 µM in the assay with SNB-75 CNS and greater than 100 µM with U251 CNS.
For the compound `CN1C(=O)CC2(C)c3cc(C=O)ccc3N(C)C12` (stereo not drawn), the TGI in the assay with A549 NSCLC, with IGROV1 ovarian, in the assay with NCI-H522 lung, with OVCAR-5 ovarian, with OVCAR-8 ovarian and in the assay on SK-OV-3 ovarian was greater than 100 µM throughout. Further, the TGI in the assay on SNB-19 CNS, with SNB-75 CNS and in the assay on U251 CNS was greater than 100 µM each time.
Turning to `CN1C=C(C(N)=O)C2CC(O)[C@@](NC(=O)CS(N)(=O)=O)(C(=O)O)C2C1` (stereo partly drawn), the TGI was greater than 36.2 µM in the assay with A549 NSCLC; 7.83 µM with IGROV1 ovarian; 23.9 µM with NCI-H522 lung; 6.8 µM with OVCAR-5 ovarian; 18.2 µM in the assay with OVCAR-8 ovarian; 6.75 µM in the assay on SK-OV-3 ovarian. For the same compound, the values for the TGI in the assay on SNB-19 CNS, with SNB-75 CNS and in the assay on U251 CNS were 19.3 µM, 7.6 µM and 11 µM, respectively.
For the compound `CCOc1ccccc1NC(=O)CCC(=O)NN`, the TGI in the assay on A549 NSCLC, in the assay with IGROV1 ovarian, in the assay with NCI-H522 lung, in the assay on OVCAR-5 ovarian, in the assay with OVCAR-8 ovarian and with SK-OV-3 ovarian was greater than 100 µM throughout. In addition, the TGI in the assay on SNB-19 CNS, in the assay on SNB-75 CNS and in the assay with U251 CNS was greater than 100 µM each time.
Regarding `NC(=O)c1ncn(C2OC(CO)C(O)C2O)c1NC(=S)NC(=O)c1ccccc1` (stereo not drawn), the TGI in the assay with A549 NSCLC, in the assay with IGROV1 ovarian, in the assay with NCI-H522 lung, in the assay on OVCAR-5 ovarian, with OVCAR-8 ovarian and in the assay with SK-OV-3 ovarian was greater than 100 µM each time. In addition, the TGI in the assay on SNB-19 CNS, in the assay with SNB-75 CNS and in the assay on U251 CNS was greater than 100 µM throughout.
For the compound `O=c1ncccn1C1OC(CO)C(O)C1F` (stereo not drawn), the concentration for total growth inhibition (TGI) in the assay with A549 NSCLC, in the assay with IGROV1 ovarian, in the assay with NCI-H522 lung, with OVCAR-5 ovarian, in the assay with OVCAR-8 ovarian and in the assay on SK-OV-3 ovarian was greater than 100 µM throughout. For the same compound, the TGI with SNB-19 CNS, in the assay with SNB-75 CNS and with U251 CNS was greater than 100 µM in each case.
